According to article PMC3298089 (Journal of Medicinal Chemistry, 2012):

Assays:
AKR1C3 = biological target: T1, AKR1C3 (Homo sapiens, UniProt P42330); assay: Inhibition of NADP+ dependent oxidation of S-tetralol catalyzed by AKR1C3; format: biochemical
T1 sequence (P42330 1-323): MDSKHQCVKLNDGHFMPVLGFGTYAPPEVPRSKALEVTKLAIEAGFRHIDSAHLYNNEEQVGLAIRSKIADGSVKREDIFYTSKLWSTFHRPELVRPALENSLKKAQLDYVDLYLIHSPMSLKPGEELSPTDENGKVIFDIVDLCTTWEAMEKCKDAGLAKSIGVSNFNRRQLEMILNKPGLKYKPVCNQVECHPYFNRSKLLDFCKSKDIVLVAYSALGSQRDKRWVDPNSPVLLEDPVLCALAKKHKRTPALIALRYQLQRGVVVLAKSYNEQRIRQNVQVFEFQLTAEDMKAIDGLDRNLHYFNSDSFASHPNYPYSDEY

AKR1C2 = biological target: T2, AKR1C2 (Homo sapiens, UniProt P52895); assay: Inhibition of NADP+ dependent oxidation of S-tetralol catalyzed by AKR1C2; format: biochemical; details: selectivity for AKR1C3; high value = high selectivity
T2 sequence (P52895 1-323): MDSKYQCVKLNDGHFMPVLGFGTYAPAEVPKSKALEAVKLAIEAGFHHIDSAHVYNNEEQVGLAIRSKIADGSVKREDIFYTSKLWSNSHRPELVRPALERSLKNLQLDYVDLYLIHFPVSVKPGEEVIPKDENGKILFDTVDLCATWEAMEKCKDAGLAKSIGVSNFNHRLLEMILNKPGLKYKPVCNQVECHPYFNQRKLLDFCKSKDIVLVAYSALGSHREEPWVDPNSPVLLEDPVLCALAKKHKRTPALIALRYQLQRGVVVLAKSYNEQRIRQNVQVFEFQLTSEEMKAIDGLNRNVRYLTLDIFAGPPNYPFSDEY

[1] = test system: AKR1C3 mediated production of testosterone in LNCaP-AKR1C3 cells; assay: LNCaP-AKR1C3 mediated formation of testosterone from [14C]-Δ4-AD; format: cell-based, human; details: 10 μM inhibitor, 0.1 μM [14C]-Δ4-AD, 48 h, relative to control

| Compound | IC50 (AKR1C3) [nM] | Ratio IC50 1C2:1C3 (AKR1C2) | also measured |
| --- | --- | --- | --- |
| CC(C)(C)c1ccc(Nc2ccccc2C(=O)O)cc1 [Compound 1o] | 38 |  |  |
| O=C(O)c1cccc(Nc2cccc(C(=O)O)c2)c1 [Compound 4l] |  | >28.0 |  |
| O=C(O)c1cccc(Nc2ccc([N+](=O)[O-])cc2)c1 [Compound 4m] | 33 |  |  |
| CC(=O)c1ccc(Nc2cccc(C(=O)O)c2)c(C(=O)O)c1 [Compound 4w] |  |  | inhibition of testosterone production in LNCaP-AKR1C3 cells [1]: Almost identical results |
| O=C(O)c1ccc(Nc2cccc([N+](=O)[O-])c2)cc1 [Compound 5d, 4-((3-nitrophenyl)amino)benzoic acid] |  | >24 |  |
| O=C(O)c1ccc(Nc2ccc(Br)cc2)cc1 [Compound 5l] |  | >25 |  |
